Test system: Long-Evans rat pups (term neonatal HIE model)
Assay: Retinal histology, thicknesses of retinal layers at P30
Type: in vivo
Set-up: Effect size, RPE thickness / Effect size, OS thickness / Effect size, IS thickness / Effect size, ONL thickness / Effect size, OPL thickness / Effect size, INL thickness / Effect size, IPL thickness / Effect size, total thickness: scale not given here
Conditions: for Effect size, INL thickness / Effect size, IPL thickness / Effect size, IS thickness / Effect size, ONL thickness / Effect size, OPL thickness / Effect size, OS thickness / Effect size, RGC/FL thickness / Effect size, RPE thickness / Effect size, total thickness: compared to HI vehicle rat pups; for INL thickness / IPL thickness / IS thickness / ONL thickness / OPL thickness / OS thickness (outer segment) / RGC/FL thickness / RPE thickness / Total thickness: left eye, P30
Procedure: A well-established rat model of term neonatal HIE (Vannucci model) (Patel S D et al., 2014, Patel S D et al., 2015; […] et al., 2009; […] et al., 2009; Rice J E, 3rd et al., 1981) and produces concomitant retinal injury (Jung S et al., 2015). Rats undergoing both the ligation and hypoxia were considered the HI group. Sham operated rats (identical procedure as the HI group, but without ligation and hypoxia) served as the control group. […] Different doses of sildenafil-i.e., low (2 mg/kg), medium (10 mg/kg), and high (50 mg/kg)-were used in the HI and sham rat pups (n=4-7 animals/group). At P30, the animals were sacrificed, and the eyes were enucleated. Retinal histology was performed as per a previously described protocol (Jung S et al., 2015). […] Then, the retinal layer thickness was plotted against eccentricity to obtain the spider graphs (FIG. 7B).

In the case of `CCCc1nn(C)c2c(=O)[nH]c(-c3cc(S(=O)(=O)N4CCN(C)CC4)ccc3OCC)nc12` [sildenafil], the “thicknesses of affected retinal layers, response” value (HI, 10 mg/kg and 50 mg/kg doses) is reported as “significantly improved response in terms of thicknesses of all the affected layers”, the “Effect size, INL thickness” value (HI, Sild 2 mg/kg) is reported as 4.94 and the “Effect size, IPL thickness” value (HI, Sild 2 mg/kg) is reported as 0.11. For the same molecule, the “Effect size, IS thickness” value (HI, Sild 2 mg/kg) was 2.16, the “Effect size, ONL thickness” value (HI, Sild 2 mg/kg) was 0.71 and the “Effect size, OPL thickness” value (HI, Sild 2 mg/kg) was 4.91. The “Effect size, OS thickness” value (HI, Sild 2 mg/kg) was 0.40, the “Effect size, RGC/FL thickness” value (HI, Sild 2 mg/kg) was 1.37 and the “Effect size, RPE thickness” value (HI, Sild 2 mg/kg) was 0.25. The “Effect size, total thickness” value (HI, Sild 2 mg/kg) was 14.72, the “Effect size, INL thickness” value (HI, Sild 10 mg/kg) was 19.74 and the “Effect size, IPL thickness” value (HI, Sild 10 mg/kg) was 42.08. For the same molecule, the “Effect size, IS thickness” value (HI, Sild 10 mg/kg) was −7.24, the “Effect size, ONL thickness” value (HI, Sild 10 mg/kg) was −19.22 and the “Effect size, OPL thickness” value (HI, Sild 10 mg/kg) was 8.67. For the same molecule, the “Effect size, OS thickness” value (HI, Sild 10 mg/kg) was −8.55, the “Effect size, RGC/FL thickness” value (HI, Sild 10 mg/kg) was 18.37 and the “Effect size, RPE thickness” value (HI, Sild 10 mg/kg) was −0.73. For the same molecule, the “Effect size, total thickness” value (HI, Sild 10 mg/kg) was 53.09, the “Effect size, INL thickness” value (HI, Sild 50 mg/kg) was 21.65 and the “Effect size, IPL thickness” value (HI, Sild 50 mg/kg) was 41.40. The “Effect size, IS thickness” value (HI, Sild 50 mg/kg) was −7.50, the “Effect size, ONL thickness” value (HI, Sild 50 mg/kg) was −17.36 and the “Effect size, OPL thickness” value (HI, Sild 50 mg/kg) was 8.95. The “Effect size, OS thickness” value (HI, Sild 50 mg/kg) was −9.86, the “Effect size, RGC/FL thickness” value (HI, Sild 50 mg/kg) was 16.59 and the “Effect size, RPE thickness” value (HI, Sild 50 mg/kg) was −0.59. For the same molecule, the “Effect size, total thickness” value (HI, Sild 50 mg/kg) was 53.25, the “topographic retinal thickness (spider graph)” value (HI, low-dose of sildenafil) was “did not seem to reverse any of the HI-induced changes in retinal thickness, except in the inferior retina” and the “topographic retinal thickness (spider graph)” value (HI, medium and high doses of sildenafil) was “nearly normal inner retina at almost all retinal eccentricities”. For the same molecule, the INL thickness (HI, Sild 2 mg/kg) was 14.71 ± 2.57 μm, the IPL thickness (HI, Sild 2 mg/kg) was 2.95 ± 2.60 μm and the IS thickness (HI, Sild 2 mg/kg) was 23.83 ± 3.12 μm. The ONL thickness (HI, Sild 2 mg/kg) was 70.88 ± 2.88 μm, the OPL thickness (HI, Sild 2 mg/kg) was 5.72 ± 3.05 μm and the “OS thickness (outer segment)” value (HI, Sild 2 mg/kg) was 38.14 ± 3.66 μm. The RGC/FL thickness (HI, Sild 2 mg/kg) was 2.28 ± 2.28 μm, the RPE thickness (HI, Sild 2 mg/kg) was 8.88 ± 0.24 μm and the Total thickness (HI, Sild 2 mg/kg) was 167.28 ± 2.63 μm. It also gave an INL thickness (HI, Sild 10 mg/kg) of 29.50 ± 1.70 μm, an IPL thickness (HI, Sild 10 mg/kg) of 44.93 ± 7.35 μm and an IS thickness (HI, Sild 10 mg/kg) of 14.43 ± 1.15 μm. The ONL thickness (HI, Sild 10 mg/kg) was 50.95 ± 0.76 μm, the OPL thickness (HI, Sild 10 mg/kg) was 9.48 ± 0.38 μm and the “OS thickness (outer segment)” value (HI, Sild 10 mg/kg) was 29.18 ± 2.14 μm. It also gave an RGC/FL thickness (HI, Sild 10 mg/kg) of 19.28 ± 3.36 μm, an RPE thickness (HI, Sild 10 mg/kg) of 7.89 ± 0.35 μm and a Total thickness (HI, Sild 10 mg/kg) of 205.64 ± 14.20 μm. For the same molecule, the INL thickness (HI, Sild 50 mg/kg) was 31.42 ± 1.66 μm, the IPL thickness (HI, Sild 50 mg/kg) was 44.25 ± 11.86 μm and the IS thickness (HI, Sild 50 mg/kg) was 14.16 ± 0.25 μm. The ONL thickness (HI, Sild 50 mg/kg) was 52.81 ± 1.06 μm, the OPL thickness (HI, Sild 50 mg/kg) was 9.76 ± 0.84 μm and the “OS thickness (outer segment)” value (HI, Sild 50 mg/kg) was 27.87 ± 2.09 μm. For the same molecule, the RGC/FL thickness (HI, Sild 50 mg/kg) was 17.50 ± 4.07 μm, the RPE thickness (HI, Sild 50 mg/kg) was 8.03 ± 0.27 μm and the Total thickness (HI, Sild 50 mg/kg) was 205.80 ± 14.22 μm. For the same molecule, the photoreceptor degeneration (present example (rat pups)) was “did not induce photoreceptor degeneration”.
